Like-named read-outs stand apart in the source and are kept apart here. Blank lines part the entries; values can stand above or below the molecule they belong to.
What was measured:
[1] = target: recombinant human His-tagged MDM2 protein (residues 1-118) (Homo sapiens (Human), UniProt Q00987); assay: Fluorescence-polarization MDM2 binding assay; conditions: Table 19A; FP binding assay; read-out: MDM2 IC50;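 further: fluorescence polarization read after three hours of incubation in potassium phosphate buffer containing bovine gamma globulin and Triton X-100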
Protocol: The assay was performed in the buffer: 100 mM potassium phosphate, pH 7.5; 100 μg/mL bovine gamma globulin; 0.02% sodium azide, 0.01% Triton X-100) and the polarization values were measured after 3 h of incubation using an ULTRA READER (Tecan U.S. Inc., Research Triangle Park, N.C.). […] The Kd value was calculated using the equation: Kd value=IC50−L0/2.
The polarization values were measured after 3 h of incubation. […] Curve fitting was performed using [sequence] PRISM software (GraphPad Software, Inc., San Diego, Calif.). […] Compounds shown in Tables 19A-D as the free base were tested either as the free base or as the CF3CO2H (TFA) or HCl salt.

[2] = tested on: Isogenic HCT-116 colon cancer cell lines; assay: cells; type: cell-based; conditions: Homo sapiens;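 further: cells grown in 96-well plates in McCoy's 5A medium with 10% FBS, exposed to compound for 4 days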
Protocol: Cells were seeded in 96-well flat bottom cell culture plates at a density of 2−3×10^3 cells/well with compounds and incubated for 4 days.

[3] = tested on: cancer cell lines with wild-type p53 / mutated or deleted p53 (ATCC); assay: Cell growth assay (WST-8), other cancer cell lines; type: cell-based; conditions: Homo sapiens
SJSA-1 xenograft tumors = assay: In vivo efficacy, SJSA-1 xenograft model (tumor volume); set-up: species or system C.B-17 SCID mice; conditions: PO 100 mg/kg; for % Tumor Growth Inhib. T/C Control 750 mm^3 D27: Exp. No. 1, SJSA-1 xenograft; for % Tumor Growth Inhib. T/C Control 750 mm^3 D24: Exp. No. 2, SJSA-1 xenograft
Protocol: SJSA-1 tumor cells were harvested with Trypsin (0.05%)-EDTA (0.53 mM) (GIBCO™, Invitrogen Corp.), growth medium added and cells placed on ice. A cell sample was mixed 1:1 with Trypan Blue (GIBCO™, Invitrogen Corp.) and counted on a hemocytometer to determine the number of live/dead cells. Cells were washed once with 1×PBS (GIBCO™, Invitrogen Corp.) and resuspended in PBS. For Matrigel injections, after washing in PBS, cells are resuspended in an ice cold mixture of 1:1 PBS and Matrigel (BD Biosciences, Invitrogen Corp.) for a final Matrigel protein concentration of 5 mg/ml. SJSA-1 tumors were inoculated into C.B-17 SCID mice at 5×10^6 cells in 0.1 ml with Matrigel. Cells were injected s.c. into the flank region of each mouse using a 27 gauge needle.
The size of tumors growing in the mice was measured in two dimensions using calipers. Tumor volume (mm^3)=(A×B2)/2 where A and B are the tumor length and width (in mm), respectively. During treatment, tumor volume and body weight was measured three times a week. […] Mice were kept for an additional 60 days for further observation of tumor growth and toxicity.
Mice with tumors within acceptable size range were randomized into treatment groups of 8 mice for experimental compounds and 10 mice for the Control group. Experimental compounds were given orally, once per day for 2-3 weeks.

[4] = In vitro microsomal stability, rat; type: in vitro ADME; conditions: for Microsomal stability, % remaining: Rat microsomes; for microsomal stability (in words) / % of compound remaining when incubated in rat liver microsomes with NADPH: rat liver microsomes
[5] = In vitro microsomal stability, human; type: in vitro ADME; conditions: for Microsomal stability, % remaining: Human microsomes; for microsomal stability (in words) / % of compound remaining when incubated in human liver microsomes with NADPH: human liver microsomes
[6] = In vitro microsomal stability, dog; type: in vitro ADME; conditions: for Microsomal stability, % remaining: Dog microsomes
[7] = Microsomal stability study, negative control incubation; type: in vitro ADME
[8] = Pharmacokinetic studies in rats; type: in vivo, rat
Protocol: Pharmacokinetic studies on MDM2 inhibitors were carried out in rat. For comparison, the MDM2 inhibitor, AT-219, was also studied.

[9] = HCT-116, read-out: HCT-116 (p53-/-) IC50, Table 19A, HCT-116 p53-/-, cell growth
[10] = HCT-116, read-out: HCT-116 (p53 wild-type) IC50, Table 19A, HCT-116 p53 wild-type, cell growth
[11] = LNCaP, Table 19A, LNCAP cells, p53 wild-type, cell growth, read-out: LNCAP (p53 wild-type) IC50
[12] = PC-3, Table 19A, PC-3 cells, deleted p53, cell growth, read-out: PC-3 (deleted p53) IC50
[13] = SJSA-1, Table 19A, SJSA-1 cells, p53 wild-type, cell growth, read-out: SJSA-1 (p53 wild-type) IC50

recombinant human His-tagged MDM2 protein (residues 1-118), sequence (Q00987 1-118): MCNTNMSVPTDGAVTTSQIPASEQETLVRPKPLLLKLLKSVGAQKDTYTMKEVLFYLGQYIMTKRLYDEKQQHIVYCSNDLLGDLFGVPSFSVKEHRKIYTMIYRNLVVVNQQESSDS

Compound: CC(C)(C)C[C@H]1N[C@@H](C(N)=O)[C@H](c2cccc(Cl)c2F)[C@@]12C(=O)Nc1cc(Cl)ccc12 [MI-519-50]
IC50 [1]: < 1 µM
IC50 [2, 9]: 23.7 µM
IC50 [2, 10]: 0.9 ± 0.2 µM
IC50 [3, 11]: 1.3 ± 0.4 µM
IC50 [3, 12]: 16.9 ± 4.5 µM
IC50 [3, 13]: 1.7 ± 1.7 µM
% Tumor Growth Inhib. T/C Control 750 mm^3 D27 (SJSA-1 xenograft tumors): 41.1%

Microsomal stability, % remaining ([4]; 0 min): 100.00%
Microsomal stability, % remaining ([4]; 5 min): 64.80%
Microsomal stability, % remaining ([4]; 10 min): 41.96%
Microsomal stability, % remaining ([4]; 15 min): 30.71%
Microsomal stability, % remaining ([4]; 30 min): 23.11%
Microsomal stability, % remaining ([4]; 45 min): 23.01%
Microsomal stability, % remaining ([4]; 60 min): 24.01%
microsomal stability (in words) [4]: metabolized fairly rapidly
Microsomal stability, % remaining ([5]; 0 min): 100.00%
Microsomal stability, % remaining ([5]; 5 min): 82.09%
Microsomal stability, % remaining ([5]; 10 min): 60.88%
Microsomal stability, % remaining ([5]; 15 min): 43.86%
Microsomal stability, % remaining ([5]; 30 min): 24.79%
Microsomal stability, % remaining ([5]; 45 min): 10.66%
Microsomal stability, % remaining ([5]; 60 min): 16.31%
microsomal stability (in words) [5]: metabolized fairly rapidly
Microsomal stability, % remaining ([6]; 0 min): 100.00%
Microsomal stability, % remaining ([6]; 5 min): 108.25%
Microsomal stability, % remaining ([6]; 10 min): 69.29%
Microsomal stability, % remaining ([6]; 15 min): 57.20%
Microsomal stability, % remaining ([6]; 30 min): 41.84%
Microsomal stability, % remaining ([6]; 45 min): 29.39%
Microsomal stability, % remaining ([6]; 60 min): 27.06%
microsomal stability (in words) ([6]; dog microsomes): metabolized fairly rapidly
Microsomal stability, % remaining ([7]; 0 min): 100.00%
Microsomal stability, % remaining ([7]; 5 min): 95.37%
Microsomal stability, % remaining ([7]; 10 min): 90.75%
Microsomal stability, % remaining ([7]; 15 min): 96.26%
Microsomal stability, % remaining ([7]; 30 min): 86.12%
Microsomal stability, % remaining ([7]; 45 min): 91.41%
Microsomal stability, % remaining ([7]; 60 min): 85.90%
Compound: CC(C)(C)C[C@H]1N[C@@H](C(=O)NCC[C@H](O)CO)[C@H](c2ccc(F)c(Cl)c2)[C@@]12C(=O)Nc1cc(Cl)c(F)cc12 [MI-319, reference compound]

Compound: CC(C)(C)C[C@H]1N[C@@H](C(=O)NC2CCN(S(C)(=O)=O)CC2)[C@H](c2cccc(Cl)c2F)[C@@]12C(=O)Nc1cc(Cl)ccc12 [MI-779]
IC50 [1]: < 0.1 µM
IC50 [2, 9]: 13.6 µM
IC50 [2, 10]: 2.5 µM
IC50 [3, 11]: 1.3 µM
IC50 [3, 12]: 11.6 µM
IC50 [3, 13]: 1 µM
% Tumor Growth Inhib. T/C Control 750 mm^3 D24 (SJSA-1 xenograft tumors): 66.1%

Compound: CC(C)(C)C[C@H]1N[C@@H](C(=O)N[C@H]2CC[C@@H](O)C2)[C@H](c2cccc(Cl)c2F)[C@@]12C(=O)Nc1cc(Cl)ccc12 [MI-519-51]
IC50 ([2]; HCT-116, read-out: HCT-116 (p53-/-) IC50): 13.4 ± 0.8 µM
IC50 ([2]; HCT-116, read-out: HCT-116 (p53 wild-type) IC50): 0.6 ± 0.3 µM
IC50 ([3]; LNCaP, read-out: LNCAP (p53 wild-type) IC50): 0.6 ± 0.2 µM
IC50 ([3]; PC-3, read-out: PC-3 (deleted p53) IC50): 8.2 ± 2.5 µM
IC50 ([3]; SJSA-1, read-out: SJSA-1 (p53 wild-type) IC50): 0.6 ± 0.2 µM
microsomal stability (in words) [4]: inferior stability to MI-219
% of compound remaining when incubated in rat liver microsomes with NADPH ([4]; 0 min): 100.00%
% of compound remaining when incubated in rat liver microsomes with NADPH ([4]; 5 min): 12.77%
% of compound remaining when incubated in rat liver microsomes with NADPH ([4]; 10 min): 2.84%
% of compound remaining when incubated in rat liver microsomes with NADPH ([4]; 15 min): 0.83%
% of compound remaining when incubated in rat liver microsomes with NADPH ([4]; 30 min): 0.00%
% of compound remaining when incubated in rat liver microsomes with NADPH ([4]; 45 min): 0.00%
% of compound remaining when incubated in rat liver microsomes with NADPH ([4]; 60 min): 0.00%
half-life ([4]; rat, liver microsomes, rat liver microsomes with NADPH): 2.18 min
microsomal stability (in words) [5]: inferior stability to MI-219
% of compound remaining when incubated in human liver microsomes with NADPH ([5]; 0 min): 100.00%
% of compound remaining when incubated in human liver microsomes with NADPH ([5]; 5 min): 36.05%
% of compound remaining when incubated in human liver microsomes with NADPH ([5]; 10 min): 9.88%
% of compound remaining when incubated in human liver microsomes with NADPH ([5]; 15 min): 3.95%
% of compound remaining when incubated in human liver microsomes with NADPH ([5]; 30 min): 0.00%
% of compound remaining when incubated in human liver microsomes with NADPH ([5]; 45 min): 0.00%
% of compound remaining when incubated in human liver microsomes with NADPH ([5]; 60 min): 0.00%
half-life ([5]; human, liver microsomes, human liver microsomes with NADPH): 3.15 min
CLz ([8]; rat, IV, 5 mg/kg, plasma, parent compound): 75 mL/min/kg
Vd ([8]; rat, plasma, iv, 5 mg/kg, rat, IV, 5 mg/kg, plasma, parent compound, read-out: Vz): 7.5 L/kg
pharmacokinetic profile (in words) ([8]; rats, intravenous and oral routes of dosing): inferior overall PK parameters to MI-219
% Tumor Growth Inhib. T/C Control 750 mm^3 D27 (SJSA-1 xenograft tumors): 34.0%

Compound: CCNC(=O)N1CCC(NC(=O)[C@@H]2N[C@H](CC(C)(C)C)[C@]3(C(=O)Nc4cc(Cl)ccc43)[C@H]2c2cccc(Cl)c2F)CC1 [MI-781]
IC50 [1]: < 0.1 µM
IC50 [2, 9]: 10.1 µM
IC50 [2, 10]: 0.4 µM
IC50 [3, 13]: 0.7 µM
% Tumor Growth Inhib. T/C Control 750 mm^3 D24 (SJSA-1 xenograft tumors): 75.5%

Source: patent US9079913B2, “Spiro-oxindole MDM2 antagonists” (The Regents of the University of Michigan, priority 2009, dated 2015)
